From patent US20240228488A1 (TAKEDA PHARMACEUTICAL COMPANY LIMITED, priority 2021, published 2024)

Tests used:
[1] = target: human activated kallikrein enzyme (Homo sapiens, UniProt P03952); experiment: Plasma kallikrein inhibition, fluorogenic PFR-AMC substrate, 500 pM activated kallikrein format; assay type: biochemical; conditions: 500 pM activated kallikrein, 300 uM PFR-AMC, 30 min preincubation, 10 min reaction; read-out: Primary Dose Response Assay: Average EC50
Outline: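 Fluorogenic readout (ex 380 / em 460 nm) after 10 min room-temperature reaction with 300 uM Pro-Phe-Arg-AMC substrate, following 30 min preincubation of inhibitors with 500 pM enzyme. Buffer: Tris pH 7.5, EDTA, NaCl, PEG-400, Triton X-100. Values given as EC50 ranges.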

[2] = target: T1, plasma kallikrein (Homo sapiens, UniProt P03952); experiment: Neat human plasma assay, FXIIa contact pathway-activated, PFR-AMC substrate; assay type: biochemical; conditions: citrated human plasma 78% final, 10 nM human FXIIa, 100 μM PFR-AMC; read-out: Human Plasma Assay: IC90
T1 construct: from tissue
Outline: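 Compound inhibition of plasma kallikrein measured as PFR-AMC (100 μM) cleavage rate over 5 min at room temperature in 78% citrated human plasma activated with 10 nM FXIIa (Tris pH 7.5 buffer). IC50/IC90 from 4-parameter fit of rate versus inhibitor concentration.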

T1 sequence (P03952 391-638 limits assumed): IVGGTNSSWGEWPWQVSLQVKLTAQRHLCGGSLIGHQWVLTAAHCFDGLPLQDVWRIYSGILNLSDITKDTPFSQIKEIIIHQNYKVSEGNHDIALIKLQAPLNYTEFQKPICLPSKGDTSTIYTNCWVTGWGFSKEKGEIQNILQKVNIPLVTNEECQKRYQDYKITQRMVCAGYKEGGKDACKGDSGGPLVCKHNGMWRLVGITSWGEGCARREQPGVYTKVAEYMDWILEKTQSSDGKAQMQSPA
T1 sequence (P03952 20-390 partner limits assumed): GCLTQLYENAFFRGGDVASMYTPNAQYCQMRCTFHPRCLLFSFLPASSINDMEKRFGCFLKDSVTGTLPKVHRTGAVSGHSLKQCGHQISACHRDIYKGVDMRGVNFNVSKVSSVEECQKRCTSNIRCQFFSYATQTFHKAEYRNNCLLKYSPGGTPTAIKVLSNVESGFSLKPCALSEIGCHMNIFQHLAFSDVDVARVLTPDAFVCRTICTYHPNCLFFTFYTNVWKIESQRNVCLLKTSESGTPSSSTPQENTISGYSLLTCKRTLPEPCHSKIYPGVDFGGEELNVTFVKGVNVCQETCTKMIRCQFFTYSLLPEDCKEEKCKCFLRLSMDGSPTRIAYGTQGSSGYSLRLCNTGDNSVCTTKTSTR
human activated kallikrein enzyme, sequence (P03952 391-638 limits assumed): as the sequence (P03952 391-638 limits assumed) above
human activated kallikrein enzyme, sequence (P03952 20-390 partner limits assumed): as the sequence (P03952 20-390 partner limits assumed) above

| Structure (SMILES) | EC50 [1] | IC90 [2] |
| --- | --- | --- |
| O=C(Nc1cc(NCc2cn3cc(C4CC4)cc(N4CCS(=O)(=O)CC4)c3n2)ncn1)[C@H]1C[C@@H]1c1cc(Cl)ccn1 [Example 326, (1S,2S)-2-(4-chloropyridin-2-yl)-N-(6-(((6-cyclopropyl-8-(1,1-dioxidothiomorpholino)imidazo[1,2-a]pyridin-2-yl)methyl)amino)pyrimidin-4-yl)cyclopropane-1-carboxamide] | < 1 nM | 400 to 1500 nM |
| Cc1ccnc([C@H]2C[C@@H]2C(=O)Nc2cc(NCc3cn4cc(C5CC5)cc(N5CC(=O)N(C)C5=O)c4n3)nc(C3(O)COC3)n2)n1 (racemic) [Example 113, rac-(1S*,2S*)—N-(6-(((6-cyclopropyl-8-(3-methyl-2,4-dioxoimidazolidin-1-yl)imidazo[1,2-a]pyridin-2-yl)methyl)amino)-2-(3-hydroxyoxetan-3-yl)pyrimidin-4-yl)-2-(4-methylpyrimidin-2-yl)cyclopropane-1-carboxamide] | < 1 nM | 400 to 1500 nM |
| O=C(Nc1cc(NCc2cn3cc(C4CC4)cc(N4C(=O)C5CCC4C5)c3n2)ccn1)[C@H]1C[C@@H]1c1cccc(Cl)c1 (stereo partly drawn) [Example 92, (1S,2S)-2-(3-chlorophenyl)-N-(4-(((6-cyclopropyl-8-(3-oxo-2-azabicyclo[2.2.1]heptan-2-yl)imidazo[1,2-a]pyridin-2-yl)methyl)amino)pyridin-2-yl)cyclopropane-1-carboxamide] | < 1 nM | 1500 to 10000 nM |
| COCc1cnc(NC(=O)[C@H]2C[C@@H]2c2nccc(C)n2)nc1NCc1cn2cc(C3CC3)cc(N3CC(=O)N(C)C3=O)c2n1 (racemic) [Example 621, rac-(1S*,2S*)—N-(4-(((6-cyclopropyl-8-(3-methyl-2,4-dioxoimidazolidin-1-yl)imidazo[1,2-a]pyridin-2-yl)methyl)amino)-5-(methoxymethyl)pyrimidin-2-yl)-2-(4-methylpyrimidin-2-yl)cyclopropane-1-carboxamide] | < 1 nM | < 400 nM |
| Cc1ccnc([C@H]2C[C@@H]2C(=O)Nc2cc(N(C)Cc3cn4cc(C5CC5)cc(N5CC(=O)N(CCO)C5=O)c4n3)cc(C3CC3)n2)n1 [Example I-637, (1S,2S)—N-(6-cyclopropyl-4-(((6-cyclopropyl-8-(3-(2-hydroxyethyl)-2,4-dioxoimidazolidin-1-yl)imidazo[1,2-a]pyridin-2-yl)methyl)(methyl)amino)pyridin-2-yl)-2-(4-methylpyrimidin-2-yl)cyclopropane-1-carboxamide] | < 1 nM | < 400 nM |
| COC(=O)CCc1cc(C2CC2)cn2cc(CNc3ccnc(NC(=O)[C@H]4C[C@@H]4c4cccc(Cl)c4)c3)nc12 [Example I-239, methyl 3-(2-(((2-((1S,2S)-2-(3-chlorophenyl)cyclopropane-1-carboxamido)pyridin-4-yl)amino)methyl)-6-cyclopropylimidazo[1,2-a]pyridin-8-yl)propanoate] | < 1 nM | 1500 to 10000 nM |
| Cc1ccnc([C@H]2C[C@@H]2C(=O)Nc2ncc(C(F)(F)F)c(OCc3cn4cc(C5CC5)cc(N5CC(=O)N(C)C5=O)c4n3)n2)n1 (racemic) [Example 628, rac-(1S*,2S*)—N-(4-((6-cyclopropyl-8-(3-methyl-2,4-dioxoimidazolidin-1-yl)imidazo[1,2-a]pyridin-2-yl)methoxy)-5-(trifluoromethyl)pyrimidin-2-yl)-2-(4-methylpyrimidin-2-yl)cyclopropane-1-carboxamide] | < 1 nM | 400 to 1500 nM |
| Cc1cc(NC(=O)[C@H]2C[C@@H]2c2nccc(C)n2)cc(NCc2cn3cc(C4CC4)cc(N4CC(=O)N(C)C4=O)c3n2)n1 [Example I-639, (1S,2S)—N-(2-(((6-cyclopropyl-8-(3-methyl-2,4-dioxoimidazolidin-1-yl)imidazo[1,2-a]pyridin-2-yl)methyl)amino)-6-methylpyridin-4-yl)-2-(4-methylpyrimidin-2-yl)cyclopropane-1-carboxamide] | < 1 nM | < 400 nM |
| CC(O)c1cc(C2CC2)cn2cc(CNc3cc(NC(=O)[C@H]4C[C@@H]4c4cccc(Cl)c4)ncn3)nc12 (stereo partly drawn) [Example 281, (1S,2S)-2-(3-chlorophenyl)-N-(6-(((6-cyclopropyl-8-(1-hydroxyethyl)imidazo[1,2-a]pyridin-2-yl)methyl)amino)pyrimidin-4-yl)cyclopropane-1-carboxamide] | 1 to 10 nM | 10000 to 48000 nM |
| Cc1cncc([C@H]2C[C@@H]2C(=O)Nc2cc(NCc3cn4cc(C5CC5)cc(N5CC(=O)N(C)C5=O)c4n3)ncn2)n1 (racemic) [Example 498, rac-(1S*,2S*)-N-(6-(((6-cyclopropyl-8-(3-methyl-2,4-dioxoimidazolidin-1-yl)imidazo[1,2-a]pyridin-2-yl)methyl)amino)pyrimidin-4-yl)-2-(6-methylpyrazin-2-yl)cyclopropane-1-carboxamide] | < 1 nM | 400 to 1500 nM |
| Cc1cc(NCc2cn3cc(C4CC4)cc(N4CCN(C)CC4)c3n2)cc(NC(=O)[C@H]2C[C@@H]2c2cccc(Cl)c2)n1 [Example 605, (1S,2S)-2-(3-chlorophenyl)-N-(4-(((6-cyclopropyl-8-(4-methylpiperazin-1-yl)imidazo[1,2-a]pyridin-2-yl)methyl)amino)-6-methylpyridin-2-yl)cyclopropane-1-carboxamide] | < 1 nM | 400 to 1500 nM |
| Cc1ccnc([C@H]2C[C@@H]2C(=O)Nc2cc(NC(C)c3cn4cc(C5CC5)cc(N5CC(=O)N(CCO)C5=O)c4n3)nc(C3CC3)n2)n1 (stereo partly drawn) [Example 460, (1S,2S)—N-(2-cyclopropyl-6-((1-(6-cyclopropyl-8-(3-(2-hydroxyethyl)-2,4-dioxoimidazolidin-1-yl)imidazo[1,2-a]pyridin-2-yl)ethyl)amino)pyrimidin-4-yl)-2-(4-methylpyrimidin-2-yl)cyclopropane-1-carboxamide] | 1 to 10 nM | 1500 to 10000 nM |
| Cc1ccnc([C@H]2C[C@@H]2C(=O)Nc2cc(NCc3cn4cc(C5CC5)cc(N5CC(=O)N(CC(=O)O)C5=O)c4n3)ncn2)n1 [Example 465] | < 1 nM | 400 to 1500 nM |
| Cc1ccnc([C@H]2C[C@@H]2C(=O)Nc2cc(N(C)Cc3cn4cc(C5CC5)cc(N5CC(=O)N(CCOCc6ccccc6)C5=O)c4n3)cc(C3CC3)n2)n1 [Example I-636, (1S,2S)—N-(4-(((8-(3-(2-(benzyloxy)ethyl)-2,4-dioxoimidazolidin-1-yl)-6-cyclopropylimidazo[1,2-a]pyridin-2-yl)methyl)(methyl)amino)-6-cyclopropylpyridin-2-yl)-2-(4-methylpyrimidin-2-yl)cyclopropane-1-carboxamide] | 1 to 10 nM | 1500 to 10000 nM |
| CC(C)(O)c1cc(C2CC2)cn2cc(CNc3cc(NC(=O)[C@H]4C[C@@H]4c4cccc(Cl)c4)ncn3)nc12 [Example I-159, (1S,2S)-2-(3-chlorophenyl)-N-(6-(((6-cyclopropyl-8-(2-hydroxypropan-2-yl)imidazo[1,2-a]pyridin-2-yl)methyl)amino)pyrimidin-4-yl)cyclopropane-1-carboxamide] | 1 to 10 nM | 10000 to 48000 nM |
| Cc1ccnc([C@H]2C[C@@H]2C(=O)Nc2cc(N(CC(=O)OCc3ccccc3)Cc3cn4cc(C5CC5)cc(N5CC(=O)N(C)C5=O)c4n3)ncn2)n1 [Example 371, benzyl N-((6-cyclopropyl-8-(3-methyl-2,4-dioxoimidazolidin-1-yl)imidazo[1,2-a]pyridin-2-yl)methyl)-N-(6-((1S,2S)-2-(4-methylpyrimidin-2-yl)cyclopropane-1-carboxamido)pyrimidin-4-yl)glycinate] | 1 to 10 nM | 1500 to 10000 nM |
